Laboratory results: ChEMBL document CHEMBL1201862, “PubChem BioAssay data set” (2004)
Active and inactive are the calls of the source.

Experiments:
[1] = target: T1, Cytochrome P450 2C9 (Homo sapiens, UniProt P11712)
[2] = target: T2, Cytochrome P450 1A2 (Homo sapiens, UniProt P05177);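 further: PubChem cytochrome P450 panel assay, CYP1A2 panel member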
T2 sequence (P05177 whole entry): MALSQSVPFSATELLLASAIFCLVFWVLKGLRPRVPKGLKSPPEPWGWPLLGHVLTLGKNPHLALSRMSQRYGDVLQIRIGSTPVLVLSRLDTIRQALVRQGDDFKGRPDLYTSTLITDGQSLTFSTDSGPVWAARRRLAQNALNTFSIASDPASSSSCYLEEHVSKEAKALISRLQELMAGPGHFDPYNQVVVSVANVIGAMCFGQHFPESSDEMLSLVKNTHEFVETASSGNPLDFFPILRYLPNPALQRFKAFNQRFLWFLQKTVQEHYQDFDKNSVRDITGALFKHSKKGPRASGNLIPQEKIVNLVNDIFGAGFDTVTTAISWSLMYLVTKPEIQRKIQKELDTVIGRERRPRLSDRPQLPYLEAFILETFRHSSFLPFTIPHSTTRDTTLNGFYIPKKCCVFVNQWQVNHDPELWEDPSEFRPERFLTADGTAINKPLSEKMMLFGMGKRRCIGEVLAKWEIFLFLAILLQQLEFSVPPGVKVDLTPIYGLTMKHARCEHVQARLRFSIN

[3] = target: Voltage-dependent T-type calcium channel subunit alpha-1H (Homo sapiens, UniProt O95180); assay type: functional;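 further: channel activity triggered by adding a high calcium stimulation buffer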
Chain of Voltage-dependent T-type calcium channel subunit alpha-1H (O95180 whole entry): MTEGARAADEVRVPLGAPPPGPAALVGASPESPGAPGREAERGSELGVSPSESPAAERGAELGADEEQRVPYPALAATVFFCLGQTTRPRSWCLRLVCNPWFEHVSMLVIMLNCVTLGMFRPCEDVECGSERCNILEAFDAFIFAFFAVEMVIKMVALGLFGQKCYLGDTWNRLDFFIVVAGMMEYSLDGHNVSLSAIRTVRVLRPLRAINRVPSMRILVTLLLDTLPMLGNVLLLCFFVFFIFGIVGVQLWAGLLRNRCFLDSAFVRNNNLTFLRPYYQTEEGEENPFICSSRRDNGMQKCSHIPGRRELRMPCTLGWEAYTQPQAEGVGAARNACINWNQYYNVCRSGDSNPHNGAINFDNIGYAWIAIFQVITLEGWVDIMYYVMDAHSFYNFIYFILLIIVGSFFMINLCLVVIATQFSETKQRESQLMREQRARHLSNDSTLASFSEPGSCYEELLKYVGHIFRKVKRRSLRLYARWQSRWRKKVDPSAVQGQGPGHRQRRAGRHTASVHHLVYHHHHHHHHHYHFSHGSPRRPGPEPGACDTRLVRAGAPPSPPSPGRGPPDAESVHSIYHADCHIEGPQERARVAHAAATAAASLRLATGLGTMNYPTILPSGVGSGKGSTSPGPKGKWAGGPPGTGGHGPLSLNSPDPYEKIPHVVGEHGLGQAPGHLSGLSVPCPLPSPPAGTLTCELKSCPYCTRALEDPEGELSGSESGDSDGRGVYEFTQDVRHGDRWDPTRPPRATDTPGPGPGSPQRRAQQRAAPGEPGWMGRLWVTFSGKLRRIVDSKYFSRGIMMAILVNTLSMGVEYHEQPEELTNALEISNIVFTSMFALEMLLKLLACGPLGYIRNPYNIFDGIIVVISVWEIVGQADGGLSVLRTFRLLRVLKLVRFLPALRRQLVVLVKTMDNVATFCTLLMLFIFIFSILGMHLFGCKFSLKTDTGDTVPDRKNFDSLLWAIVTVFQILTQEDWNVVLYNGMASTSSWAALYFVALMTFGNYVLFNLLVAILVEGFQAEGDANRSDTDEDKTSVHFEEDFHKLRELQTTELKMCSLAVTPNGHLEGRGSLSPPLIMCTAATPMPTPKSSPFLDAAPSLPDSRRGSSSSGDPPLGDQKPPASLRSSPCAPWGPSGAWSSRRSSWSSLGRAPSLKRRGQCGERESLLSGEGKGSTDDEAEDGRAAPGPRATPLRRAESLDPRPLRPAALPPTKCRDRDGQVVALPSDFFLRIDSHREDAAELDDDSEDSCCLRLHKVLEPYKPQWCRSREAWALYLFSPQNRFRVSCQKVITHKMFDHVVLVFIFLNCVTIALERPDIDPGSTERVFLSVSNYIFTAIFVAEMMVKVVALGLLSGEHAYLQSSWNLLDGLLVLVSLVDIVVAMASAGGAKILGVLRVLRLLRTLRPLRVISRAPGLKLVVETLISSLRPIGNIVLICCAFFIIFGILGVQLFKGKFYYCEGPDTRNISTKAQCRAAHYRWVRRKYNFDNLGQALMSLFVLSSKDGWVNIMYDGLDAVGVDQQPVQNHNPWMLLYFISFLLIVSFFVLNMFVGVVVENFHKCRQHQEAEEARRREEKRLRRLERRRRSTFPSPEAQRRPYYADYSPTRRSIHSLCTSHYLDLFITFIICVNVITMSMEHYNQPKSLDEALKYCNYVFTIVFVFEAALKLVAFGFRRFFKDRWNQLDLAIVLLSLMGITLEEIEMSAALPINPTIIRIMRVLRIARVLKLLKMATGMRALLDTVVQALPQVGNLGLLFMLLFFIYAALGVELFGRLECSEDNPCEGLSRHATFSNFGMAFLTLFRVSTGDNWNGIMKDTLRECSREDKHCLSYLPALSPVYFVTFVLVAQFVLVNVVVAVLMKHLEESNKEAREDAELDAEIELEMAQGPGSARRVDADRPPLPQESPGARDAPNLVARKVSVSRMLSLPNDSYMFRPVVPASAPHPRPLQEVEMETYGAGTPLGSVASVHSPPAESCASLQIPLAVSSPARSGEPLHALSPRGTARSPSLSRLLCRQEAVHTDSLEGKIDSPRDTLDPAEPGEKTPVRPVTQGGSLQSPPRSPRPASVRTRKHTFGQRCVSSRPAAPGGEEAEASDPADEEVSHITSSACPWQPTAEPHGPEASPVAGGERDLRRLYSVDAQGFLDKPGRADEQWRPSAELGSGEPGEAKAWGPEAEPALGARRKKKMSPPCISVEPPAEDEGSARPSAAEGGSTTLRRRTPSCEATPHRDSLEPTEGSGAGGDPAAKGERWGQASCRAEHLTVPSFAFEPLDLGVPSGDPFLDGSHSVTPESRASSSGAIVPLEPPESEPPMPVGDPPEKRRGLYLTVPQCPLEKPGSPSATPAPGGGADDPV

[4] = system: H9c2; experiment: cells; assay type: functional, cell-based; conditions: Rattus norvegicus, H9c2, Myocardium;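 further: confirmatory concentration-response retest of ultra-high-throughput screening hits for modulation of myocardial damage; cell death induced by hydrogen peroxide oxidative stress; compound pretreatment for 60 min then peroxide exposure for 2 h; potency is for protecting the cells against peroxide damage rather than for killing them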
[5] = CRF-BP/CRF-R2 complex antagonists, dose response, cell-based, uHTS hits, 384-well (AID 651639); assay type: functional, Homo sapiens; conditions: read-out: IC50_Mean
[6] = target: T3, Corticotropin-releasing factor receptor 2/Corticotropin-releasing factor-binding protein (Homo sapiens, UniProt P24387+Q13324); experiment: activators of CRF receptor 2 with binding protein – uHTS hits, confirmation (AID 602473); assay type: functional; conditions: read-out: EC50_Mean
T3 sequence (Q13324 whole entry): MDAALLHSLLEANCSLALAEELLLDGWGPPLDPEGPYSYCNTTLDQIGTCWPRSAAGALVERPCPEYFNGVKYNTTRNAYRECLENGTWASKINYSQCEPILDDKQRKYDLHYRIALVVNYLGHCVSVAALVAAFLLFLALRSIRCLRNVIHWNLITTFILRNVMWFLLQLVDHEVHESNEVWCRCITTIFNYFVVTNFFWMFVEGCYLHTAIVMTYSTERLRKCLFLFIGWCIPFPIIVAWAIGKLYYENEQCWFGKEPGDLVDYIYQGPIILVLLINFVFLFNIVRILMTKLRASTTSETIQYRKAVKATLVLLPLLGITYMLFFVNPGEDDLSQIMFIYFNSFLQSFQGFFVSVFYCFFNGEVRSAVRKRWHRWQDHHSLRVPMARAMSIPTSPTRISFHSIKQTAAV
T3 sequence (P24387 whole entry): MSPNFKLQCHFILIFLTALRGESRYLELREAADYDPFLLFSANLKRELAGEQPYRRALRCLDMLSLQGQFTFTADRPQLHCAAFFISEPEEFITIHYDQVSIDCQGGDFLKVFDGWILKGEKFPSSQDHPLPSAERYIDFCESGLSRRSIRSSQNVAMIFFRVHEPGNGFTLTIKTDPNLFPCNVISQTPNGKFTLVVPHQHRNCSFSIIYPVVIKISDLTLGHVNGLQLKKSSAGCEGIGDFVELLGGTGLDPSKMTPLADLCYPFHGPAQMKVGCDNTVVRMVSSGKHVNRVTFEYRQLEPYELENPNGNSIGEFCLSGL

[7] = target: T3, Corticotropin-releasing factor receptor 2/Corticotropin-releasing factor-binding protein; experiment: Dose Response confirmation of uHTS hits for small molecule antagonists of the CRF-binding protein and CRF-R2 receptor complex.; assay type: functional; conditions: read-out: IC50_Mean
[8] = target: Cytochrome P450 2C19 (Homo sapiens, UniProt P33261); experiment: Cytochrome panel assay with activity outcomes. Panel member name: p450-cyp2c19 Compounds with AC50 equal or less than 10 uM are considered active; assay type: functional; conditions: read-out: AC50
Chain of Cytochrome P450 2C19 (P33261 whole entry): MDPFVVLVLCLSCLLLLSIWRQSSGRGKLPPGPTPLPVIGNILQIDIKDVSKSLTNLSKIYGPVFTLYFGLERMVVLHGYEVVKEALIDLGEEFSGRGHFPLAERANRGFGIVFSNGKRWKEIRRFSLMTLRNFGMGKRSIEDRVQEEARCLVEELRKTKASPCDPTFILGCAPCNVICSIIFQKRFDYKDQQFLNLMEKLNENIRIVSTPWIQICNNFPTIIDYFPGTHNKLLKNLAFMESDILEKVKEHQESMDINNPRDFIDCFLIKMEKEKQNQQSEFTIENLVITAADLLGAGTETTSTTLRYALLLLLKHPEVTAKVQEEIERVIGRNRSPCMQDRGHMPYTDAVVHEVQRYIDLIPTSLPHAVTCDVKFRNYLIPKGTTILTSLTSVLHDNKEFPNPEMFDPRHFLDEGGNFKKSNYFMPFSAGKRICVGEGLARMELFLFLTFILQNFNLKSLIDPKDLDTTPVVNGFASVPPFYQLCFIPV

[9] = target: T1, Cytochrome P450 2C9; remark: listed apart in the source
[10] = target: T4, Short transient receptor potential channel 4 (Mus musculus, UniProt Q9QUQ5); experiment: mouse TRPC4 channel activators, dose response, cell-based, HEK293 TRPC4/mu-opioid, Fluo-4 calcium (AID 434937); assay type: functional
T4 sequence (Q9QUQ5 whole entry): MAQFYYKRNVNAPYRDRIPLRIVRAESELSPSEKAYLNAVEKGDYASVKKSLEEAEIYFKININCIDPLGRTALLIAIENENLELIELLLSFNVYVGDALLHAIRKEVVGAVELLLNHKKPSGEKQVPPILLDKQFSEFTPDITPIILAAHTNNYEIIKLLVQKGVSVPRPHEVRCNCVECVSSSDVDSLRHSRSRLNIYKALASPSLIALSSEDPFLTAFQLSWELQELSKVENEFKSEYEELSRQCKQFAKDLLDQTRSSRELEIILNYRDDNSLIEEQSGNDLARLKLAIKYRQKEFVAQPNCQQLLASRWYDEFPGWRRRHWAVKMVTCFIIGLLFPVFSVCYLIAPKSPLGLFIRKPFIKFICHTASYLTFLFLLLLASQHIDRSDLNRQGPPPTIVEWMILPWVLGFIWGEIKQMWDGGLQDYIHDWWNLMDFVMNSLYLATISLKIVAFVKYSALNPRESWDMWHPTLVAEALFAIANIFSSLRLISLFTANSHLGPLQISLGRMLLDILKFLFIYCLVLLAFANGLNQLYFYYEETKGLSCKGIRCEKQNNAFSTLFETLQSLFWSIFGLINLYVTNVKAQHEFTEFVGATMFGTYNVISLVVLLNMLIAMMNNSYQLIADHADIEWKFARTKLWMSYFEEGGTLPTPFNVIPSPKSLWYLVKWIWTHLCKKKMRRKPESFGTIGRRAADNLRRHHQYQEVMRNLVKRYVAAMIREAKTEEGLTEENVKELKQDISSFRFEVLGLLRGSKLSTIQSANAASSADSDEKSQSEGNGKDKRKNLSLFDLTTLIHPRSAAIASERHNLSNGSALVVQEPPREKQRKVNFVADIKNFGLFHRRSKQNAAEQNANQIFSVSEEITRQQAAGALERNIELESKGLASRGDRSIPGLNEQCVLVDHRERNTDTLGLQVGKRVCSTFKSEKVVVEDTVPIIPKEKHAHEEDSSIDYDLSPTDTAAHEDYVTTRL

[11] = HEp-2 cell cytotoxicity, dose response, cytotoxicity control for RSV inhibitor project, HTS (AID 2410); assay type: functional; conditions: human respiratory syncytial virus
[12] = target: T5, Aminopeptidase N (Plasmodium falciparum FcB1/Columbia, UniProt O96935); experiment: P. falciparum M1AAP inhibitors, biochemical, fluorogenic H-Leu-NHMec substrate, 1536-well (AID 1445); parameters: species or system Plasmodium falciparum 3D7, 3D7
T5 sequence (O96935 whole entry): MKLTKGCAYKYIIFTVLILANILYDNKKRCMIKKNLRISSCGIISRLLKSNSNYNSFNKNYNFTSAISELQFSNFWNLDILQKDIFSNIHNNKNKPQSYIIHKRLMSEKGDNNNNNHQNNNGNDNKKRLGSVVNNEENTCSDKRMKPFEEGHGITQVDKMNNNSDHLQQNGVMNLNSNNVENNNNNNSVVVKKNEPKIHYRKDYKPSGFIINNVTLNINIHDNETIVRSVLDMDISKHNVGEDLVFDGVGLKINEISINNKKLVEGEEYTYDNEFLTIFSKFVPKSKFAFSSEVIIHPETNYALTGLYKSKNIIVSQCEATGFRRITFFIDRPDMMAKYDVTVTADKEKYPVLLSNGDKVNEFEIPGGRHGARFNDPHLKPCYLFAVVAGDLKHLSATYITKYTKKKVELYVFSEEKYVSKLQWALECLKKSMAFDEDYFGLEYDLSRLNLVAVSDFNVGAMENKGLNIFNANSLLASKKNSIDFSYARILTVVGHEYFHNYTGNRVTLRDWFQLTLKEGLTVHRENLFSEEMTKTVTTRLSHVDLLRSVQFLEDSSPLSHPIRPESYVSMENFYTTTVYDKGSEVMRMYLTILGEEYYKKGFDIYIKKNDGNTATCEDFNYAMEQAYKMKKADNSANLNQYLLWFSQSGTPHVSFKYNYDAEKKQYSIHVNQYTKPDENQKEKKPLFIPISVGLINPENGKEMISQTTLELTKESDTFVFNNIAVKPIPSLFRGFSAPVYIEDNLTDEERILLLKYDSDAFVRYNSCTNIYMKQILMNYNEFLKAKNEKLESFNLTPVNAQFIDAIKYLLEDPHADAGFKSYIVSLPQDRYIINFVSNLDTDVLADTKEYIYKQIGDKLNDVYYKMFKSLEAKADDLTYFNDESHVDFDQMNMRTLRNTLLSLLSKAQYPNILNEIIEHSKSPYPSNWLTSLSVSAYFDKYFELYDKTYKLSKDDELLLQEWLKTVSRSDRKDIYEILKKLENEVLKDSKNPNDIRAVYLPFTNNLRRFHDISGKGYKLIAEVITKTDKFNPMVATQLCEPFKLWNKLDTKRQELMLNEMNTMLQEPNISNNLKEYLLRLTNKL

[13] = A Cell Based Secondary Assay To Explore Cytotoxicity of Compounds that Sensitize Mycobacterium Tuberculosis to Beta-Lactam Antibiotics.; assay type: functional
[14] = target: T6, Heat shock factor protein 1 (Mus musculus, UniProt P38532); experiment: inhibition of MG132-induced HSE-luciferase signal, confirmation, cell-based, NIH3T3, luminescence, dose retest (AID 2382); assay type: functional;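 further: NIH3T3 fibroblasts with HSF1-driven luciferase reporter stressed by proteasome inhibitor MG132; luminescence from HSF1-driven luciferase expression after 8 hours of MG132 stress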
T6 sequence (P38532 whole entry): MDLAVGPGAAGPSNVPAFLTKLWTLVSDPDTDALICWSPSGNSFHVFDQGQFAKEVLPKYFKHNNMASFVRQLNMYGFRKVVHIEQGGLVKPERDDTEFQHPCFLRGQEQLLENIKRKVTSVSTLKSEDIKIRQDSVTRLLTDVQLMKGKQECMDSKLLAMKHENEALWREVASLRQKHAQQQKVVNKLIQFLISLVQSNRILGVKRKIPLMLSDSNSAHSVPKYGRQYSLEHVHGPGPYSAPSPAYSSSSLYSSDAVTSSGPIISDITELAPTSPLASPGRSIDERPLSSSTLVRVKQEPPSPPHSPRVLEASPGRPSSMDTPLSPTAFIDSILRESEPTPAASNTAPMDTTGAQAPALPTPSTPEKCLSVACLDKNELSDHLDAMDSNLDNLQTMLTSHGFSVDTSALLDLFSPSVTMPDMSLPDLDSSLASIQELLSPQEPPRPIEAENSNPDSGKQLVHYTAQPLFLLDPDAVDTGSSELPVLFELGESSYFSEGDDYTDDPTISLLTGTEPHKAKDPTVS

T1 sequence (P11712 whole entry): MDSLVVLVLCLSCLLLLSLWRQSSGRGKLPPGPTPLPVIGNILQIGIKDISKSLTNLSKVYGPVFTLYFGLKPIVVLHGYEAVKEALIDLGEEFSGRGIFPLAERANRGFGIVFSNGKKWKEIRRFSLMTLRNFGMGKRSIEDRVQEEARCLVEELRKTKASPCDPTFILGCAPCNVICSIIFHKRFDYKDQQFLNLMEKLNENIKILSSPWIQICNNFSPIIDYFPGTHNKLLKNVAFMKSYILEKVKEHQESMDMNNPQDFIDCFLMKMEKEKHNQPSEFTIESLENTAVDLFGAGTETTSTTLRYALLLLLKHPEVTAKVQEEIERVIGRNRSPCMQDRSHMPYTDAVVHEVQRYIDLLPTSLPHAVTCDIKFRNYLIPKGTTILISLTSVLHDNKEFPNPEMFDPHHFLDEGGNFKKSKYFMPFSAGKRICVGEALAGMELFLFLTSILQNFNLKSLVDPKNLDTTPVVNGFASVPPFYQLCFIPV

Cc1cccc(-c2nc(CN3CCCC(C(=O)NC4CCCCC4)C3)c(C)o2)c1 (centres undefined)
AC50 [1]: 28.2 µM (inconclusive) | AC50 [2]: 20 µM (inconclusive) | EC50 [3]: 2.14 µM (active)

O=C(CCn1nc(-c2ccccc2)c2ccccc2c1=O)N1CCN(c2ccccc2)CC1
IC50 [4]: > 79 µM (inactive) | EC50 [3]: 7.63 µM (active)

CCCCOC1CC(c2ccc(OCc3ccc(OC)cc3)c(OC)c2)N(C)O1 (centres undefined)
IC50 [5]: > 20 µM (inactive) | EC50 [6]: > 53 µM (inactive) | IC50 [7]: 15.4 µM (active)

Fc1ccc(N2CCN(c3ccc4c(C(F)(F)F)cc(C(F)(F)F)nc4n3)CC2)cc1
AC50 [8]: 22.4 µM (inconclusive) | AC50 [9]: inconclusive | AC50 [2]: 5.01 µM (inconclusive) | EC50 [3]: 4.13 µM (active)

CSc1cccc(NC(=O)CN(c2ccc(C)cc2C)S(C)(=O)=O)c1
EC50 [3]: 4.13 µM (active)

Cc1ccc(C)c(NC(S)=NCCc2c[nH]cn2)c1
EC50 [10]: 2.66 µM (active)

C/C(N)=C(/C#N)C(=O)COC(=O)c1cc(-c2cccc(Br)c2)nc2ccccc12
CC50 [11]: 12.2 µM (active)

O=C(CS(=O)(=O)Cc1ccccc1)N1CCN(c2cccc(C(F)(F)F)c2)CC1
IC50 [12]: 105 µM (active)

O=C1CC(c2ccc(Cl)cc2)SC(N(c2ccccc2)c2ccccc2)=N1 (centres undefined)
IC50 [5]: 14.9 µM (active) | EC50 [6]: > 53 µM (inactive) | IC50 [7]: 13.8 µM (active)

O=C(CSc1nc2ccsc2c(=O)n1NC(=O)c1ccccc1)NCc1ccco1
IC50 [12]: 72.1 µM (active)

NS(=O)(=O)c1ccc(N2N=C(c3ccccc3)CC2c2cccc(F)c2)cc1 (centres undefined)
IC50 [12]: 47.6 µM (active)

O=C(Nc1cccc2ccccc12)N1CCCN(c2c(Cl)cncc2Cl)CC1
CC50 [13]: > 40 µM (active)

N#Cc1c(NC(=O)CSc2nc(-c3ccco3)cc(C(F)(F)F)n2)sc2c1CCCC2
CC50 [13]: > 40 µM (active)

Cc1nn(-c2cc(C(F)(F)F)ccc2Cl)c2nc(C(Cl)(Cl)Cl)nc(O)c12
IC50 [5]: 11.1 µM (active) | EC50 [6]: > 53 µM (inactive) | IC50 [7]: 5.2 µM (active)

Cc1ccc(-n2nc(C)c3c2NC(=O)CSC3c2ccc3c(c2)OCO3)cc1 (centres undefined)
EC50 [14]: > 195 µM (not active) | EC50 [3]: 6.71 µM (active)

O=C(c1ccc(-c2ccccc2Cl)s1)N1CCOCC1
CC50 [11]: > 50 µM (active)

CCCCN(CCCC)CP(=O)(c1ccccc1)c1ccccc1
EC50 [3]: 11.4 µM (active)

CC(/C=C(\NC(=O)c1ccccc1)C(=O)N=Nc1c(O)[nH]c2ccc(C)cc12)=C\c1ccccc1
EC50 [14]: 16.1 µM (active) | CC50 [13]: 33.7 µM (active)

Cc1ccc(S(=O)(=O)c2nc(NCCN(C)C)sc2Cl)cc1
IC50 [12]: 12.7 µM (active)

Cn1c(=S)[nH]c2sc3c(c2c1=O)CCC(C(C)(C)C)C3 (centres undefined)
CC50 [13]: 10.7 µM (active)
